From US20210059251A1, “PLANT GROWTH REGULATOR COMPOUNDS” (SYNGENTA PARTICIPATIONS AG, priority 2018, published 2021)

The molecules below were run on corn leaf (assay: Dark induced senescence of corn leaf (leaf discs)). Settings: 23° C., 8 days, 0.5% DMSO, image analysis, lower value = higher senescence induction potency.
Format: cell-based, Corn (variety Multitop)
Protocol: It is known that strigolactones regulate (accelerate) leaf senescence, potentially through D14 receptor signaling. Compounds of the present invention (I) were compared to structurally-related compounds (Z) in a corn leaf dark induced senescence assay. Corn plants of variety Multitop were grown in a greenhouse with relative 75% humidity and at 23-25° C. for 6 weeks. 1.4 cm diameter leaf discs were placed into 24-well plates containing a test compounds in a concentration gradient (100 μM-0.0001 μM) at a final concentration of 0.5% DMSO. Each concentration was tested in 12 replicates. Plates were sealed with seal foil. The foil was pierced to provide gas exchange in each well. The plates were placed into the completely dark climatic chamber. Plates were incubated in the chamber with 75% humidity and at 23° C. for 8 days. On days 0, 5, 6, 7 and 8 photographs were taken of each plate, and image analysis conducted with a macro developed using the ImageJ software. The image analysis was used to determine the concentration at which 50% senescence was achieved (IC50), see Table 7. The lower the value, the higher senescence induction potency.

Row | IC50 (concentration at which 50% senescence was achieved) | SMILES
1 | inactive | CC1=C(C)C(O/C=C2/C(=O)N(c3nccs3)C3c4ccccc4CC23)OC1=O (stereo not shown) [Compound Z2-Me, reference compound]
2 | inactive | CC1=CC(O/C=C2/C(=O)N(c3nccs3)C3c4ccccc4CC23)OC1=O (stereo not shown) [Compound Z2, reference compound]

Same assay, conditions: Zea mays, foliar, 192 h, 23° C., 8 days, 0.5% DMSO, image analysis, lower value = higher senescence induction potency, read-out: IC50 (concentration at which 50% senescence was achieved)

Row | SMILES | IC50 [nM]
3 | CC1=CC(O/C=C2/C(=O)N(CC#N)C3Cc4ccccc4C23)OC1=O (stereo not shown) [Compound I-12-E, 2-[(1E)-1-[(4-methyl-5-oxo-2H-furan-2-yl)oxymethylene]-2-oxo-4,8b-dihydro-3aH-indeno[2,1-b]pyrrol-3-yl]acetonitrile] | 1550
4 | CC(=O)N1C(=O)/C(=C/OC2OC(=O)C(C)=C2C)C2Cc3ccccc3C21 (stereo not shown) [Compound Z1-Me, reference compound] | 30
5 | CC1=CC(O/C=C2/C(=O)N(CC#N)C3c4ccccc4CC23)OC1=O (stereo not shown) [Compound Z4-E, reference compound] | 3710

The next lines start with the values.

Row | IC50 [nM] | SMILES
6 | 107 | CC1=CC(O/C=C2/C(=O)N(c3ccccc3)C3Cc4ccccc4C23)OC1=O (stereo not shown) [Compound I-10, (1E)-1-[(4-methyl-5-oxo-2H-furan-2-yl)oxymethylene]-3-phenyl-4,8b-dihydro-3aH-indeno[2,1-b]pyrrol-2-one]
7 | 24 | CC(=O)N1C(=O)/C(=C/OC2OC(=O)C(C)=C2C)C2c3ccccc3CC21 (stereo not shown) [Compound I-5, (1E)-3-acetyl-1-[(3,4-dimethyl-5-oxo-2H-furan-2-yl)oxymethylene]-4,8b-dihydro-3aH-indeno[2,1-b]pyrrol-2-one]
8 | 110 | CC(=O)N1C(=O)/C(=C/OC2C=C(C)C(=O)O2)C2Cc3ccccc3C21 (stereo not shown) [Compound Z1, reference compound]
9 | 126 | CC1=CC(O/C=C2/C(=O)N(c3nccs3)C3Cc4ccccc4C23)OC1=O (stereo not shown) [Compound I-9, (1E)-1-[(4-methyl-5-oxo-2H-furan-2-yl)oxymethylene]-3-thiazol-2-yl-4,8b-dihydro-3aH-indeno[2,1-b]pyrrol-2-one]
10 | 11.1 | CC1=C(C)C(O/C=C2/C(=O)N(c3nccs3)C3Cc4ccccc4C23)OC1=O (stereo not shown) [Compound I-13, (1E)-1-[(3,4-dimethyl-5-oxo-2H-furan-2-yl)oxymethylene]-3-thiazol-2-yl-4,8b-dihydro-3aH-indeno[2,1-b]pyrrol-2-one]
11 | 2470 | CC1=CC(O/C=C2/C(=O)N(c3ccccc3)C3c4ccccc4CC23)OC1=O (stereo not shown) [Compound Z3, reference compound]
12 | 990 | CC(=O)N1C(=O)/C(=C/OC2OC(=O)C(C)=C2C)C2c3ccccc3OC21 (stereo not shown) [Compound I-25]
13 | 64 | CC(=O)N1C(=O)/C(=C/OC2C=C(C)C(=O)O2)C2c3ccccc3CC21 (stereo not shown) [Compound I-1, (1E)-3-acetyl-1-[(4-methyl-5-oxo-2H-furan-2-yl)oxymethylene]-4,8b-dihydro-3aH-indeno[2,1-b]pyrrol-2-one]
